{
  "source": "patent US5919793A",
  "about": "“Heterocyclic derivatives” (Zeneca Limited, priority 1993, dated 1999)",
  "key": {"[1]": {"system": "de novo hepatic cholesterol synthesis from 14C-acetate", "assay": "Acute rat cholesterol synthesis assay", "format": "in vivo", "conditions": "inhibition of cholesterol synthesis", "procedure": "(b) Acute rat cholesterol synthesis assay.\nThis is an acute in vivo test in the rat to measure de novo hepatic cholesterol synthesis from exogenously administered ^14 C-acetate.\nFemale rats (35-55 g) are housed in reverse lighting conditions (red light from 0200 h-1400 h) for a period of about 2 weeks prior to test. Animals are allowed free access to chow and drinking water throughout this period. At test, animals should weigh 125-150 g.\nTest compounds may be administered by oral gavage, dissolved or suspended in 0.5% polysorbate, or by ip or iv dosing. Control animals receive vehicle alone. After 1 hour the rats are injected ip with 25 μCi [2-^14 C]-acetate (NEN DUPONT. specific activity, 45-60 mCi/mmol NEC-085H, or AHERSHAM specific activity, 50-60 mCi/mmol CFA 14) in a volume of 0.25 ml saline (100 μCi/ml). After a further hour, rats are terminally anaesthetised with halothane and a blood sample obtained from the abdominal vena cava.\n1 ml of plasma is lyophilised and then saponified in 2 ml ethanolic KOH (1 part 33% KOH, 9 parts ethanol) at 75° C. for 2 hours. After addition of an equal quantity of water, non-saponifiable lipids are extracted with two 5 ml volumes of hexane. The hexane extracts are evaporated to dryness and the residues dissolved in ethanol to determine cholesterol specific radioactivity. ED50 values can be determined in the standard way."}, "[2]": {"system": "squalene synthase (rat liver microsomal protein)", "assay": "Inhibition of Squalene synthase (formation of squalene from tritiated farnesyl pyrophosphate)", "format": "biochemical", "conditions": "at 2.5 μM", "procedure": "(a) Inhibition of Squalene synthase\nIn this test, the ability of a compound to prevent the formation of squalene from a radioactive substrate (tritiated farnesyl pyrophosphate) is assessed.\nThe test compound is incubated at a concentration of 25 micromolar in 200 μl of a buffered solution containing potassium phosphate (50 mM), MgCl2 (4.95 mM), KF (9.9 mM), NADPH (0.9 mM) and rat liver microsomal protein (20 μg). Rat liver microsomes are prepared by the method described in published European Patent Application No. 324,421 and stored in liquid nitrogen prior to assay. Assay vials are kept at 37° C. throughout the incubation.\nThe reaction is started with the addition of the substrate (1-[^3 H]-farnesyl pyrophosphate), final concentration 20 μM, and stopped after 15 minutes reaction time with the addition of 50 μl of 4% KOH. The reaction products are separated from unreacted substrate after application to a C-18 octadecyl 1 ccBond column (Analytichem Int product No. 617101). An aqueous fraction is eluted with 250 μl of 0.1M KOH. Squalene is then eluted with 1.0 ml 10% ethylacetate in hexane and radioactivity determined. The difference in radioactivity in the presence and absence of the test compound is used to determine the level of inhibition. […] The IC50 can then be determined from a plot of percentage inhibition against concentration of test compound."}},
  "data": [
    {"compound": "COCCOc1cc(C)c(C#CC2(O)CN3CCC2CC3)c(C)c1", "note": "(centres unmarked) [Example 16]", "values": [
      {"measurement": "ED50", "setting": "[1]", "result": "~5.1", "unit": "mg/kg"},
      {"measurement": "inhibition of squalene synthase", "setting": "[2]", "result": "about 80%"}
    ]}
  ]
}
